In US10442803B2, “Tricyclic heterocycles as bet protein inhibitors” (Incyte Corporation, priority 2013, dated 2019):
Where a name gives a salt, the structure may show the parent alone.

Tests used:
BRD4-BD1 = BRD4-BD1 (Homo sapiens (Human), UniProt O60885); assay: BRD4 AlphaScreen assay (BRD4-BD1); assay type: binding; settings: H4Ac4 peptide, read-out: BRD4 BD-1 enzyme IC50
Method: (§1) BRD4-BD1 and BRD4-BD2 assays were conducted in white 384-well polystyrene plate in a final volume of 20 μL for BD1 and 40 μL for BD2. Inhibitors were first serially diluted in DMSO and added to the plate wells before the addition of other reaction components. The final concentration of DMSO in the assay was 1.25% (BD1) and 0.83% (BD2). The assays were carried out at room temperature for 75 min. in the assay buffer (50 mM HEPES, pH 7.4, 100 mM NaCl, 0.05% CHAPS, 0.01% BSA), containing 50 nM Biotin-labeled tetra-acetylated histone H4 peptide (H4Ac4), 3.8 nM (BRD4-BD1, BPS Bioscience #31040) or 20 nM (BRD4-BD2, BPS Bioscience #31041). The reaction followed by the addition of 20 μL of assay buffer supplemented with Streptavidin donor beads (PerkinElmer 6760002) and GSH Acceptor beads (PerkinElmer-AL109C) at 4 μg/mL under reduced light. After plate sealing, the plate was incubated in the dark at room temperature for 75 min. before reading on a PHERAstar FS plate reader (BMG Labtech). IC50 determination was performed by fitting the curve of percent control activity versus the log of the inhibitor concentration using the GraphPad Prism 5.0 software.

BRD4-BD2 = BRD4-BD2 (Homo sapiens (Human), UniProt O60885); assay: BRD4 AlphaScreen assay (BRD4-BD2); assay type: binding; settings: H4Ac4 peptide, read-out: BRD4 BD-2 enzyme IC50
Method: as §1

KMS.12.BM cells = assay: KMS.12.BM cell viability assay; assay type: cell-based; settings: 72 h; KMS.12.BM human myeloma cells, 3 days, Cell Titer-GLO ATP quantitation; read-out: KMS cellular IC50
Summary of the method: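 IC50 derived from luminescent ATP quantitation (Cell Titer-GLO) of viable cells after 3-day compound treatment. KMS.12.BM human myeloma line seeded at 5000 cells/well in RPMI with 10% FBS.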

| IC50 (BRD4-BD1) [nM] | IC50 (BRD4-BD2) [nM] | Compound | IC50 (KMS.12.BM cells) [nM] |
| --- | --- | --- | --- |
| 100 to 1000 | ≤ 100 | Cc1cc2c(ccc3nnc(C)n32)n1[C@@H](C)c1ccccc1 (single isomer, unassigned) [Example 5, 1,7-dimethyl-6-(1-phenylethyl)-6H-pyrrolo[2,3-e][1,2,4]triazolo[4,3-a]pyridine] | 1000 to 10000 |
|  | ≤ 100 | Cc1nnc2ccc3c(cc(-c4ccn(C5CN(S(C)(=O)=O)C5)n4)n3Cc3cccc(Cl)c3)n12 [Example 109, 6-(3-chlorobenzyl)-1-methyl-7-{1-[1-(methylsulfonyl)azetidin-3-yl]-1H-pyrazol-3-yl}-6H-pyrrolo[2,3-e][1,2,4]triazolo[4,3-a]pyridine] | ≤ 1000 |
| ≤ 100 |  | CCN1CC(CC#N)(n2ccc(-c3cc4c(ccc5nnc(C)n54)n3Cc3ccccc3)n2)C1 [Example 110, {3-[3-(6-benzyl-1-methyl-6H-pyrrolo[2,3-e][1,2,4]triazolo[4,3-a]pyridin-7-yl)-1H-pyrazol-1-yl]-1-ethylazetidin-3-yl}acetonitrile] | ≤ 1000 |
| ≤ 100 |  | Cc1nnc2ccc3c(cc(-c4ccn(C5(CC#N)CN(C(C)C)C5)n4)n3Cc3ccccc3)n12 [Example 111, {3-[3-(6-benzyl-1-methyl-6H-pyrrolo[2,3-e][1,2,4]triazolo[4,3-a]pyridin-7-yl)-1H-pyrazol-1-yl]-1-isopropylazetidin-3-yl}acetonitrile] | ≤ 1000 |
| ≤ 100 | ≤ 100 | Cc1nnc2ccc3c(cc(-c4nnco4)n3Cc3cc(Cl)cc(CN4CC(O)C4)c3)n12 [Example 139, 1-(3-Chloro-5-{[1-methyl-7-(1,3,4-oxadiazol-2-yl)-6H-pyrrolo[2,3-e][1,2,4]triazolo[4,3-a]pyridin-6-yl]methyl}benzyl)azetidin-3-ol] | 1000 to 10000 |
| ≤ 100 | ≤ 100 | Cc1nnc2ccc3c(cc(-c4ccn(C5CNC5)n4)n3Cc3cccc(Cl)c3)n12 [Example 156, 7-(1-azetidin-3-yl-1H-pyrazol-3-yl)-6-(3-chlorobenzyl)-1-methyl-6H-pyrrolo[2,3-e][1,2,4]triazolo[4,3-a]pyridine bis(trifluoroacetate) salt] | ≤ 1000 |
| ≤ 100 | ≤ 100 | Cc1nnc2ccc3c(cc(-c4ccn(C5(CC#N)CNC5)n4)n3Cc3cccc(Cl)c3)n12 [Example 157, (3-{3-[6-(3-Chlorobenzyl)-1-methyl-6H-pyrrolo[2,3-e][1,2,4]triazolo[4,3-a]pyridin-7-yl]-1H-pyrazol-1-yl}azetidin-3-yl)acetonitrile bis(trifluoroacetate) salt] | ≤ 1000 |
| ≤ 100 |  | Cc1nc2c(cc(NC3CCN(C)CC3)c3nnc(C)n32)n1Cc1ccccc1 [Example 223, 3-Benzyl-2,8-dimethyl-N-(1-methylpiperidin-4-yl)-3H-imidazo[4,5-e][1,2,4]triazolo[4,3-a]pyridin-5-amine] | ≤ 1000 |
|  |  | Cc1cc2c(cc(NCCN)c3nnc(C)n32)n1Cc1ccccc1 [Example 258, N1-(6-benzyl-1,7-dimethyl-6H-pyrrolo[2,3-e][1,2,4]triazolo[4,3-a]pyridin-4-yl)ethane-1,2-diamine] | ≤ 1000 |
|  |  | CCNc1cc2c(cc(C)n2Cc2ccccc2)n2c(C)nnc12 [Example 259, 6-Benzyl-N-ethyl-1,7-dimethyl-6H-pyrrolo[2,3-e][1,2,4]triazolo[4,3-a]pyridin-4-amine] | ≤ 1000 |
|  |  | Cc1cc2c(cc(Nc3ccccc3)c3nnc(C)n32)n1Cc1ccccc1 [Example 260, 6-Benzyl-1,7-dimethyl-N-phenyl-6H-pyrrolo[2,3-e][1,2,4]triazolo[4,3-a]pyridin-4-amine] | 1000 to 10000 |
|  |  | CNc1cc2c(cc(C)n2Cc2ccccc2)n2c(C)nnc12 [Example 261, 6-Benzyl-N,1,7-trimethyl-6H-pyrrolo[2,3-e][1,2,4]triazolo[4,3-a]pyridin-4-amine] | ≤ 1000 |
|  |  | CCCNc1cc2c(cc(C)n2Cc2ccccc2)n2c(C)nnc12 [Example 262, 6-Benzyl-N-propyl-1,7-dimethyl-6H-pyrrolo[2,3-e][1,2,4]triazolo[4,3-a]pyridin-4-amine] | 1000 to 10000 |
|  |  | Cc1cc2c(cc(NC(C)C)c3nnc(C)n32)n1Cc1ccccc1 [Example 263, 6-Benzyl-N-isopropyl-1,7-dimethyl-6H-pyrrolo[2,3-e][1,2,4]triazolo[4,3-a]pyridin-4-amine] | 1000 to 10000 |
|  |  | CC(=O)Nc1cc2c(cc(C)n2Cc2ccccc2)n2c(C)nnc12 [Example 266, N-(6-Benzyl-1,7-dimethyl-6H-pyrrolo[2,3-e][1,2,4]triazolo[4,3-a]pyridin-4-yl)acetamide] | ≤ 1000 |
|  |  | CCCC(=O)Nc1cc2c(cc(C)n2Cc2ccccc2)n2c(C)nnc12 [Example 267, N-(6-Benzyl-1,7-dimethyl-6H-pyrrolo[2,3-e][1,2,4]triazolo[4,3-a]pyridin-4-yl)butyramide] | ≤ 1000 |
|  |  | CCC(=O)Nc1cc2c(cc(C)n2Cc2ccccc2)n2c(C)nnc12 [Example 268, N-(6-Benzyl-1,7-dimethyl-6H-pyrrolo[2,3-e][1,2,4]triazolo[4,3-a]pyridin-4-yl)propionamide] | ≤ 1000 |
|  |  | Cc1cc2c(cc(NC(=O)C3CC3)c3nnc(C)n32)n1Cc1ccccc1 [Example 269, N-(6-Benzyl-1,7-dimethyl-6H-pyrrolo[2,3-e][1,2,4]triazolo[4,3-a]pyridin-4-yl)cyclopropanecarboxamide] | ≤ 1000 |
|  |  | Cc1cc2c(cc(NC(=O)C(C)C)c3nnc(C)n32)n1Cc1ccccc1 [Example 270, N-(6-Benzyl-1,7-dimethyl-6H-pyrrolo[2,3-e][1,2,4]triazolo[4,3-a]pyridin-4-yl)isobutyramide] | ≤ 1000 |
|  |  | Cc1cc2c(cc(NS(C)(=O)=O)c3nnc(C)n32)n1Cc1ccccc1 [Example 271, N-(6-Benzyl-1,7-dimethyl-6H-pyrrolo[2,3-e][1,2,4]triazolo[4,3-a]pyridin-4-yl)methanesulfonamide] | ≤ 1000 |
|  |  | COC(=O)Nc1cc2c(cc(C)n2Cc2ccccc2)n2c(C)nnc12 [Example 272, Methyl 6-benzyl-1,7-dimethyl-6H-pyrrolo[2,3-e][1,2,4]triazolo[4,3-a]pyridin-4-ylcarbamate] | ≤ 1000 |

| Compound | IC50 (BRD4-BD1) [nM] | IC50 (BRD4-BD2) [nM] | IC50 (KMS.12.BM cells) [nM] |
| --- | --- | --- | --- |
| Cc1nnc2ccc3c(cc(-c4nnco4)n3Cc3cccc(Cl)c3)n12 [Example 141, 6-(3-Chlorobenzyl)-1-methyl-7-(1,3,4-oxadiazol-2-yl)-6H-pyrrolo[2,3-e][1,2,4]triazolo[4,3-a]pyridine trifluoroacetate salt] | ≤ 100 | ≤ 100 | ≤ 1000 |
